According to US9693997B2, “Antiviral compounds” (priority 2013, dated 2017):
Structures can show the parent of a compound that is named as a salt.

Key:
[1] = tested on: Pseudotyped HCV GT1b particles (HCVpp), entry into Huh7-high CD81 cells; experiment: microbe, parasite or virus in culture; type: cell-based, HCV GT1b Con1 strain; details: Hepatitis C virus, GT1B, 72 h, read-out: HCVpp GT-1b (EC50, μM)
[2] = tested on: pseudotyped VSV G particles (VSVpp) in Huh7-high CD81 cells; experiment: microbe, parasite or virus in culture; type: cell-based, vesicular stomatitis virus; details: Vesicular stomatitis virus, 72 h, read-out: VSVpp (EC50, μM)

Row | SMILES | EC50 [1] [µM] | EC50 [2] [µM]
1 | CC(C)(C)CCN1CCCC(CS(=O)(=O)c2ccc(-c3c(Cl)cc(Nc4n[nH]c(N)n4)cc3C(F)(F)F)cc2)C1 (stereo not drawn) [Compound 56, N*3*-{2-Chloro-4′-[1-(3,3-dimethyl-butyl)-piperidin-3-ylmethanesulfonyl]-6-trifluoromethyl-biphenyl-4-yl}-1H-[1,2,4]triazole-3,5-diamine; hydrochloride] | 0.046 | 3.74
2 | CSc1ccc(-c2ccc(Nc3n[nH]c(N)n3)cc2Cl)c(F)c1 [Compound 156, N*3*-(2-Chloro-2′-fluoro-4′-methylsulfanyl-biphenyl-4-yl)-1H-[1,2,4]triazole-3,5-diamine] | 3.77 | 11.3
3 | CC(C)N1CC(C)(NS(=O)(=O)c2ccc(-c3c(Cl)cc(Nc4n[nH]c(N)n4)cc3C(F)(F)F)cc2)C1 [Compound 210, 4′-(5-amino-1H-1,2,4-triazol-3-ylamino)-2′-chloro-N-(1-isopropyl-3-methylazetidin-3-yl)-6′-(trifluoromethyl)biphenyl-4-sulfonamide hydrochloride] | 0.021 | 4.41
4 | Nc1nc(Nc2ccc(-c3ccc(F)c(F)c3)c(C(F)(F)F)c2)n[nH]1 [Compound 152, N*3*-(3′,4′-Difluoro-2-trifluoromethyl-biphenyl-4-yl)-1H-[1,2,4]triazole-3,5-diamine] | 0.575 | 20.4
5 | Nc1nc(Nc2cc(Cl)c(-c3ccc(S(=O)(=O)N4CCNCC45CC5)cc3)c(C(F)(F)F)c2)n[nH]1 [Compound 214, N3-(4′-(4,7-diazaspiro[2.5]octan-4-ylsulfonyl)-2-chloro-6-(trifluoromethyl)biphenyl-4-yl)-1H-1,2,4-triazole-3,5-diamine hydrochloride] | 0.048 | 3.36
6 | Nc1nc(Nc2cc(Cl)c(-c3ccc(S(=O)(=O)N4CC5(COC5)C4)cc3)c(C(F)(F)F)c2)n[nH]1 [Compound 69, N*3*-[6-Chloro-4′-(2-oxa-6-aza-spiro[3.3]heptane-6-sulfonyl)-2-trifluoromethyl-biphenyl-4-yl]-1H-[1,2,4]triazole-3,5-diamine] | 0.033 | > 10
7 | Nc1nc(Nc2cc(Cl)c(-c3ccc4[nH]ncc4c3)c(Cl)c2)n[nH]1 [Compound 257, N-3-[3′,5′-dichlorophenyl-4′-(1H-indazol-5-yl)-phenyl]-1H-[1,2,4]triazole-3,5-diamine] | 0.343 | 2.73
8 | CC(C)(C)OC(=O)N1CCC[C@@H]1COc1ccc(-c2c(Cl)cc(Nc3n[nH]c(N)n3)cc2C(F)(F)F)cc1 [Compound 267, (R)-2-[4′-(5-Amino-1H-[1,2,4]triazol-3-ylamino)-2′-chloro-6′-trifluoromethyl-biphenyl-4-yloxymethyl]-pyrrolidine-1-carboxylic acid tert-butyl ester] | 0.048 | 9.62
9 | CC(C)(C)OC(=O)N1CCC(CS(=O)(=O)c2ccc(-c3c(Cl)cc(Nc4n[nH]c(N)n4)cc3C(F)(F)F)cc2)CC1 [Compound 7, 4-[4′-(5-Amino-1H-[1,2,4]triazol-3-ylamino)-2′-chloro-6′-trifluoromethyl-biphenyl-4-sulfonylmethyl]-piperidine-1-carboxylic acid tert-butyl ester] | 0.017 | 3.09
10 | CC(C)(C)CCNCCOc1ccc(-c2c(Cl)cc(Nc3n[nH]c(N)n3)cc2C(F)(F)F)cc1 [Compound 136, N*3*-{6-Chloro-4′-[2-(3,3-dimethyl-butylamino)-ethoxy]-2-trifluoromethyl-biphenyl-4-yl}-1H-[1,2,4]triazole-3,5-diamine hydrochloride] | 0.005 | 3.08
11 | CC(C)(C)N(CC(F)(F)F)S(=O)(=O)c1ccc(-c2c(Cl)cc(Nc3n[nH]c(N)n3)cc2C(F)(F)F)cc1 [Compound 223, 4′-(5-Amino-1H-[1,2,4]triazol-3-ylamino)-6′-chloro-2′-trifluoromethyl-biphenyl-4-sulfonic acid tert-butyl-(2,2,2-trifluoro-ethyl)-amide] | 0.029 | 9.8
12 | CC(C)(C)OC(=O)N1CCCC(S(=O)(=O)c2ccc(-c3c(Cl)cc(Nc4n[nH]c(N)n4)cc3C(F)(F)F)cc2)C1 (stereo not drawn) [Compound 6, 3-[4′-(5-Amino-1H-[1,2,4]triazol-3-ylamino)-2′-chloro-6′-trifluoromethyl-biphenyl-4-sulfonyl]-piperidine-1-carboxylic acid tert-butyl ester] | 0.008 | 2.56
13 | Nc1nc(Nc2ccc(-c3c(Cl)cccc3Cl)cc2)n[nH]1 [Compound 258] | 20.2 | 26.2
14 | CN(C)S(=O)(=O)c1ccc(-c2c(F)cc(Nc3nc(N)n[nH]3)cc2C(F)(F)F)cc1 [Compound 75, 4′-(5-Amino-2H-[1,2,4]-triazol-3-ylamino)-6′-fluoro-2′-trifluoromethyl-biphenyl-4-sulfonic acid dimethylamide] | 0.164 | 12.6
15 | CC(C)(C)OC(=O)N1CC(S(=O)(=O)c2ccc(-c3c(Cl)cc(Nc4n[nH]c(N)n4)cc3C(F)(F)F)cc2)C1 [Compound 59, 3-[4′-(5-Amino-1H-[1,2,4]triazol-3-ylamino)-6′-chloro-2′-trifluoromethyl-biphenyl-4-sulfonyl]-azetidine-1-carboxylic acid tert-butyl ester] | 0.008 | 5.78
16 | CC(C)CCS(=O)(=O)c1ccc(-c2c(Cl)cc(Nc3n[nH]c(N)n3)cc2C(F)(F)F)cc1 [Compound 61, N*3*-[6-Chloro-4′-(3-methyl-butane-1-sulfonyl)-2-trifluoromethyl-biphenyl-4-yl]-1H-1,2,4-triazole-3,5-diamine] | 0.013 | > 10
17 | Nc1nc(Nc2cc(Cl)c(-c3ccc(N4CCCC4=O)cc3)c(Cl)c2)n[nH]1 [Compound 43, 1-[4′-(5-Amino-1H-[1,2,4]triazol-3-ylamino)-2′,6′-dichloro-biphenyl-4-yl]-pyrrolidin-2-one] | 0.169 | 15.4
18 | CC(C)(C)CCN1CCCC(Oc2ccc(-c3c(Cl)cc(Nc4n[nH]c(N)n4)cc3C(F)(F)F)cc2)C1 (stereo not drawn) [Compound 131, N*3*-{6-Chloro-4′-[1-(3,3-dimethyl-butyl)-piperidin-3-yloxy]-2-trifluoromethyl-biphenyl-4-yl}-1H-[1,2,4]triazole-3,5-diamine hydrochloride] | 0.095 | 7.02
19 | Nc1nc(Nc2cc(Cl)c(-c3ccc(S(=O)(=O)N4CCC(F)(F)C4)cc3)c(C(F)(F)F)c2)n[nH]1 [Compound 62, N*3*-[6-Chloro-4′-(3,3-difluoro-pyrrolidine-1-sulfonyl)-2-trifluoromethyl-biphenyl-4-yl]-1H-[1,2,4]triazole-3,5-diamine] | 0.02 | > 10
20 | CC(C)(C)OC(=O)COc1ccc(-c2c(Cl)cc(Nc3n[nH]c(N)n3)cc2Cl)cc1 [Compound 276, [4′-(5-Amino-1H-[1,2,4]triazol-3-ylamino)-2′,6′-dichloro-biphenyl-4-yloxy]-acetic acid tert-butyl ester] | 0.168 | > 10
21 | CC(C)(CO)NS(=O)(=O)c1ccc(-c2c(Cl)cc(Nc3n[nH]c(N)n3)cc2C(F)(F)F)cc1 [Compound 226, 4′-(5-Amino-1H-[1,2,4]triazol-3-ylamino)-6′-chloro-2′-trifluoromethyl-biphenyl-4-sulfonic acid (2-hydroxy-1,1-dimethyl-ethyl)-amide] | 0.032 | 5.39
